Source: US20220290200A1, “GENETICALLY MODIFIED HOST CELLS PRODUCING GLYCOSYLATED CANNABINOIDS” (OCTARINE BIO IVS, priority 2019, published 2022)

Tests used:
[1] = system: S. cerevisiae strain BY4741; experiment: Toxicity of cannabinoids and cannabinoid glycosides in S. cerevisiae (final OD600); format: cell-based; details: 3% ethanol; for Final OD600 of S. cerevisiae: 72 h; for toxicity to yeast (final OD600 after 72 h): YP media, 2% glucose, 30° C., concentration range tested
Method: It is well known that cannabinoids are toxic to microbes, and it is thought that these compounds are produced by cannabis plants as a defense mechanism against infection. […] Product toxicity in microbial strains engineered to produce cannabinoids will hinder high-level production of these molecules, glycosylating these molecules can be used to detoxify them and facilitate higher production titers in engineered microbial strains. […] Cells were inoculated to a starting OD600 of 0.1 and incubated at 30° C. and 200 RPM and the final OD600 was measured after 72 h.

[2] = Thermodynamic aqueous solubility assay in PBS; details: for Thermodynamic solubility: room temperature, PBS buffer pH 7.4, duplicate
Method: Alternatively, aqueous solubility was determined by a thermodynamic solubility assay as follows. 2.5 mg of test compound was weighed in a glass vial, 0.5 mL of phosphate buffered saline (pH=7.4) was added and the sample briefly vortexed. Samples were then incubated overnight at room temperature on a vial roller system to dissolve as much of the compound as possible into solution. Following incubation, the aqueous solutions were filtered in duplicate ([…]) and the filtrate diluted 1:1 with 100% methanol. Samples were further diluted where necessary and analyzed by HPLC. The concentration of compound in solution was determined by comparison to a standard curve made with authentic analytical standards.

[3] = In vitro glycosyl transferase performance, purified enzymes, % conversion of cannabinoids to cannabinoid glycosides; format: biochemical; details: acceptor CBD, UDP-Glucose
Procedure, shortened: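 His-tagged glycosyl transferases expressed in E. coli XJb (DE3) were Ni-affinity purified. Cannabinoids (in methanol) were incubated with enzyme, UDP-sugar and alkaline phosphatase without shaking at 30 °C for 24 h. Products confirmed by LC-MS/QTOF; % conversion derived from substrate decrease and glycoside peak areas against authentic standards.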

Compound | Final OD600 of S. cerevisiae ([1]; 100 μM substrate added) | Final OD600 of S. cerevisiae ([1]; 200 μM substrate added) | Final OD600 of S. cerevisiae ([1]; 400 μM substrate added) | Final OD600 of S. cerevisiae ([1]; 800 μM substrate added) | toxicity to yeast (final OD600 after 72 h) [1] | solubility ([2]; phosphate buffered saline, pH 7.4, aqueous buffer, thermodynamic from solid) [mM] | Thermodynamic solubility [2] | Conversion % (CBD to the glycoside) ([3]; enzyme PL-159(Pt88G_GA), in vitro 30° C. 24 h) [%] | Conversion % (CBD to the glycoside) ([3]; enzyme PL-214(Cs73Y_GA)) [%]
C=C(C)[C@@H]1CCC(C)=C[C@H]1c1c(O)cc(CCCCC)cc1O [CBD, cannabidiol, reference compound] | 9.3 | 8.2 | 6.7 | 4.7 | toxic to yeast | ≤ 0.0005 | Below Detection Limit |  | 
C=C(C)[C@@H]1CCC(C)=C[C@H]1c1c(O)cc(CCCCC)cc1O[C@@H]1O[C@H](CO)[C@@H](O)[C@H](O)[C@H]1O [OB1, CBD-1′-O-β-D-glucoside] |  |  |  |  |  |  |  | 75 | 
C=C(C)[C@@H]1CCC(C)=C[C@H]1c1c(O[C@@H]2O[C@H](CO)[C@@H](O)[C@H](O)[C@H]2O)cc(CCCCC)cc1O[C@@H]1O[C@H](CO)[C@@H](O)[C@H](O)[C@H]1O [OB6, CBD-1′-O-β-D-glucosyl-3′-O-β-D-glucoside] | 9.1 | 8.8 | 9.5 | 8.8 | non-toxic at the concentration range tested |  | 11.4 ± 0.75 mM |  | 57.5
